pKd: −log10 of the molar value. Converted amounts (≈) assume the structure as drawn. “And” between values parts separate entries of the source, which are not always exact repeats. Equal entries are not always repeated. Where two headings read alike, the source gives them in different places.
Assays:
[1] = test system: wild type E. Coli strain BW25113; assay: Study 3 - Antibacterial activity (EC50), dilution susceptibility test M07-A9; type: cell-based, Escherichia coli; conditions: for EC50: Escherichia coli
Description: The antibacterial activity of the separated diastereomers (V-i) and (V-ii) was determined against wild type E. Coli strain BW25113.
The method described in “Methods for Dilution Antimicrobial Susceptibility Tests for Bacteria that Grow Aerobically; Approved Standard—Ninth Edition” (M07-A9; Vol. 32, No. 2) was used.

Escherichia Coli LeuRS = Escherichia Coli LeuRS (Escherichia coli (strain K12), UniProt P07813); assay: Study 1 - Isothermal titration calorimetry (ITC), separated diastereomers; type: binding; conditions: for Kd: read-out: K (binding constant) (converted); for pKd: read-out: KD (dissociation constant)
Description: The dissociation constants (KD) of the separated diastereomers (V-i) and (V-ii) for binding to Escherichia Coli LeuRS were determined by isothermal titration calorimetry (ITC).
Escherichia coli BL21(DE3) cells transformed with plasmid pQE-60 containing the open-reading frame sequence of one targeted aaRS (i.e., LeuRS) were induced with 1 mM IPTG (isopropyl β-D-1-thiogalactopyranoside) for 3 hours at 37° C. Bacterial cells were harvested and lysed with 20 mM HEPES (4-(2-hydroxyethyl)-1-piperazinylethane-sulfonic acid) (pH 7.5), 300 mM NaCl, 15 mM imidazole and 1 mM DTT (1,4-dithio-D-threitol). The pathogenic aaRS was first purified by nickel affinity standard chromatography. The eluted protein was concentrated and then further purified by gel filtration using 50 mM HEPES (pH 7.5), 150 mM NaCl buffer.
ITC studies were carried out using a Microcal ITC200 instrument (GE Healthcare). […] The titrations were performed at 25° C. with 10-30 μM E. Coli LeuRS in 50 mM HEPES, 150 mM NaCl, pH 7.5 buffer containing 1% DMSO (v/v). The protein solution in the 200 μL sample cell was titrated with the inhibitor solution (diluted to 100-300 μM in the same buffer as the protein) using 1-2 μL injections every 140 seconds. All titrations were repeated at least three times. To correct for heats of dilution and mixing, the final baseline consisting of small peaks of identical size at the end of each experiment was subtracted. The experimental data were fitted to a theoretical titration curve (one site model) using MicroCal Origin 7 software.

[2] = ITC, 25° C., pH 7.5, single replicates 1-3

Escherichia Coli LeuRS, sequence (P07813 whole entry): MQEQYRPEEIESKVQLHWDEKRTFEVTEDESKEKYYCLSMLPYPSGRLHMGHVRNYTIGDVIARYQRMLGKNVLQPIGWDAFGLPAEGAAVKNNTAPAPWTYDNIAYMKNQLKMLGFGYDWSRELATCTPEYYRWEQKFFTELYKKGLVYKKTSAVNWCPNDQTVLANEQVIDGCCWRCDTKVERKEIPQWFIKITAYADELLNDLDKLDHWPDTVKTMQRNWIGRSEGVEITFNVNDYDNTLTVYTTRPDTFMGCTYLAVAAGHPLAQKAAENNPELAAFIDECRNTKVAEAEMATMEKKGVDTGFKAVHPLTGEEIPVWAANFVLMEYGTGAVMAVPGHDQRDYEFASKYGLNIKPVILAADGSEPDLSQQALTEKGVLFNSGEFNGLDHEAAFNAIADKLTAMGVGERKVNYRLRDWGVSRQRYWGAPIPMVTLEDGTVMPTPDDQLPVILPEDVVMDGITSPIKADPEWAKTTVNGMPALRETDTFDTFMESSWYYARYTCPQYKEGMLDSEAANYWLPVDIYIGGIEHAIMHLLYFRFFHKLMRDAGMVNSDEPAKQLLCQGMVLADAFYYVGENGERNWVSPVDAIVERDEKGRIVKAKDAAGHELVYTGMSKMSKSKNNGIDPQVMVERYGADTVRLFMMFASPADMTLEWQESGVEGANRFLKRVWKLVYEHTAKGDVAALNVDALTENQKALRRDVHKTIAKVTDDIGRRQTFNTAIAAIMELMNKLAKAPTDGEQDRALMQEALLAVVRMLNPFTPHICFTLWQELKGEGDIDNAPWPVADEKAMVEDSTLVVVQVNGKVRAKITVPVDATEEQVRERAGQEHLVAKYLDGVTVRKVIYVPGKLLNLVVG

Row | Structure (SMILES) | antibacterial activity (in words) [1] | EC50 [1] | binding to E. coli LeuRS (in words) (Escherichia Coli LeuRS; ITC) | K (binding constant) (Escherichia Coli LeuRS; [2]) | ΔS (Escherichia Coli LeuRS; [2]) | Kd (Escherichia Coli LeuRS; [2]) | pKd (Escherichia Coli LeuRS) | ΔH (Escherichia Coli LeuRS; [2])
1 | CC(C)C[C@H](N)C(=O)N[S@+]([O-])c1ccccc1 (single isomer, unassigned) [V-i] | potent antibacterial agent | 4 µg/mL (≈ 15.7 µM) | binds with high affinity | 2.4e+08 M⁻¹ | −7.96 cal/mol/° C. and −12.5 cal/mol/° C. and −7.03 cal/mol/° C. | 6.49 nM and 3.14 nM | 8.34 | 
2 | CC(C)C[C@H](N)C(=O)N[S@@+]([O-])c1ccccc1 (single isomer, unassigned) [V-ii] |  | > 128 µg/mL |  | 83500 M⁻¹ and 77000 M⁻¹ | +3.44 cal/mol/° C. and +2.28 cal/mol/° C. and +1.56 cal/mol/° C. | 15000 nM | 4.89 | -5690 cal/mol and -5899 cal/mol and -6200 cal/mol

Source: patent US11802110B2, “2-amino-N-(arylsulfinyl)-acetamide compounds as inhibitors of bacterial aminoacyl-tRNA synthetase” (priority 2016, dated 2023)
